According to the supplement of paper PMC10307832:

Key:
Experiment in all cases: relative viability (nuclei count vs DMSO), 5 days (fraction); higher = more cells survive
[1] = compound: Cc1ccc(Nc2nccc(N(C)c3ccc4c(C)n(C)nc4c3)n2)cc1S(N)(=O)=O [Pazopanib] + CC(=O)Nc1cccc(-n2c(=O)n(C3CC3)c(=O)c3c(Nc4ccc(I)cc4F)n(C)c(=O)c(C)c32)c1 [Trametinib] (partner 0.02 µM)
In short: (§1)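 Cells from lung cancer lines were seeded into 1536-well plates and, one day later, dosed by pin tool. Treatments were either a single drug or a fixed dose of an anchor drug with five library-drug doses (not always all listed) in √10 steps. After 5 days, nuclei were stained in a one-step fixation (final 0.05% Triton X-100, 1% formaldehyde, 1 ug/ml Hoechst) and counted on 4× images, and relative viability is the treated-to-vehicle nuclei ratio, as the median of duplicate plates.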

[2] = compound: Cc1ccc(Nc2nccc(N(C)c3ccc4c(C)n(C)nc4c3)n2)cc1S(N)(=O)=O [Pazopanib] + CS(=O)(=O)N1CCN(Cc2cc3nc(-c4cccc5[nH]ncc45)nc(N4CCOCC4)c3s2)CC1 [Pictilisib] (partner 1 µM)
In short: as §1

[3] = compound: Cc1ccc(C(=O)Nc2ccc(CN3CCN(C)CC3)c(C(F)(F)F)c2)cc1C#Cc1cnc2cccnn12 [Ponatinib] + C[C@@H](Oc1cc(-c2cnn(C3CCNCC3)c2)cnc1N)c1c(Cl)ccc(F)c1Cl [Crizotinib] (partner 1 µM)
In short: as §1

[4] = compound: Cc1ccc(C(=O)Nc2ccc(CN3CCN(C)CC3)c(C(F)(F)F)c2)cc1C#Cc1cnc2cccnn12 [Ponatinib] + COc1cc2c(Oc3ccc(NC(=O)C4(C(=O)Nc5ccc(F)cc5)CC4)cc3F)ccnc2cc1OCCCN1CCOCC1 [Foretinib] (partner 0.25 µM)
In short: as §1

| Cell Line | relative viability ([1]; first compound 0.01 µM) | relative viability ([1]; first compound 0.03162 µM) | relative viability ([1]; first compound 0.1 µM) | relative viability ([1]; first compound 0.3162 µM) | relative viability ([1]; first compound 1 µM) | relative viability ([2]; first compound 0.01 µM) | relative viability ([2]; first compound 0.03162 µM) | relative viability ([2]; first compound 0.1 µM) | relative viability ([2]; first compound 0.3162 µM) | relative viability ([2]; first compound 1 µM) | relative viability ([3]; first compound 0.002 µM) | relative viability ([3]; first compound 0.006325 µM) | relative viability ([3]; first compound 0.06325 µM) | relative viability ([3]; first compound 0.2 µM) | relative viability ([4]; first compound 0.002 µM) | relative viability ([4]; first compound 0.006325 µM) | relative viability ([4]; first compound 0.06325 µM) | relative viability ([4]; first compound 0.2 µM) |
| --- | --- | --- | --- | --- | --- | --- | --- | --- | --- | --- | --- | --- | --- | --- | --- | --- | --- | --- |
| BEN | 1.05 | 1.04 | 0.916 | 1.08 | 0.925 | 0.514 | 0.621 | 0.515 | 0.567 | 0.488 | 0.838 | 0.824 | 0.804 | 0.794 | 0.549 | 0.663 | 0.457 | 0.674 |
| EMC-BAC-2 | – | 0.965 | 0.897 | 0.931 | 1.1 | 0.457 | 0.576 | 0.623 | 0.579 | 0.604 | 0.708 | 0.661 | 0.747 | 0.727 | 0.965 | 0.989 | 1.06 | 0.986 |
| LU99A | – | 0.622 | 0.632 | 0.597 | 0.595 | 0.241 | 0.374 | 0.356 | 0.35 | 0.35 | 0.512 | 0.53 | 0.564 | 0.59 | 0.781 | 0.928 | 0.876 | 0.774 |
| ABC-1 | – | – | – | – | – | 0.635 | 0.839 | 0.82 | 0.799 | 0.86 | 1.24 | 1.23 | 1.08 | 0.852 | 1.01 | 0.995 | 1.15 | 1.09 |
| NCI-H358 | 0.145 | 0.134 | 0.124 | 0.167 | 0.141 | 0.337 | 0.333 | 0.297 | 0.415 | 0.395 | 0.536 | 0.512 | 0.517 | 0.502 | 0.734 | 0.731 | 1.02 | 0.784 |
| NCI-H1299 | – | – | – | – | – | 0.791 | 0.79 | 0.82 | 0.952 | 0.693 | 0.904 | 0.936 | 0.974 | 0.923 | 1.07 | 1.09 | 1.15 | 1.07 |
| EBC-1 | – | – | – | – | – | 0.402 | 0.508 | 0.376 | 0.412 | 0.394 | 0.179 | 0.214 | 0.208 | 0.192 | 0.106 | 0.0969 | 0.092 | 0.115 |
| NCI-H2405 | 0.562 | 0.672 | 0.666 | 0.644 | 0.524 | 0.321 | 0.514 | 0.424 | 0.583 | 0.586 | 0.75 | 0.917 | 0.821 | 0.732 | 1 | 1.06 | 1.04 | 0.935 |
| NCI-H1993 | – | 0.451 | 0.576 | 0.438 | 0.512 | 0.8 | 0.828 | 0.709 | 0.801 | 0.789 | 0.796 | 1.01 | 1.01 | 1 | 0.722 | 0.778 | 0.973 | 0.76 |
| NCI-H441 | 0.5 | 0.445 | 0.474 | 0.563 | 0.734 | 0.449 | 0.52 | 0.573 | 0.603 | 0.39 | 0.576 | 0.632 | 0.835 | 0.607 | 1.14 | 0.836 | 1.01 | 0.986 |
| PC-14 | 0.834 | 0.775 | 0.896 | 1.09 | 0.766 | 0.64 | 0.612 | 0.88 | 0.637 | 0.686 | 0.866 | 0.901 | 0.966 | 0.946 | 0.981 | 1.04 | 1.14 | 0.975 |
| HARA | 0.829 | 0.94 | 0.604 | 0.755 | 0.725 | 0.26 | 0.332 | 0.493 | 0.479 | 0.343 | 0.972 | 1.01 | 0.973 | 1.02 | 0.859 | 0.855 | 0.963 | 0.878 |
| NCI-H2087 | 0.223 | 0.261 | 0.192 | 0.174 | 0.242 | 0.784 | 0.951 | 0.85 | 0.963 | 1.01 | 0.669 | 0.654 | 0.839 | 0.853 | 1.12 | 0.864 | 1.01 | 0.868 |
| NCI-H1648 | – | – | 0.452 | 0.454 | 0.427 | – | – | – | – | – | – | – | – | – | – | – | – | – |
| NCI-H1792 | – | 0.432 | 0.418 | 0.349 | 0.443 | – | 0.271 | 0.276 | 0.282 | 0.309 | 0.956 | 0.988 | 1.1 | 0.976 | – | – | – | – |
| HCC-44 | 1.03 | 1 | 1.03 | 1 | 1.09 | 0.421 | 0.599 | 0.659 | 0.521 | 0.673 | 0.752 | 0.799 | 0.908 | 0.808 | – | – | – | – |
| A549 | – | – | – | – | – | 0.494 | 0.477 | 0.63 | 0.589 | 0.423 | 0.625 | 0.743 | 0.682 | 0.702 | 0.965 | 0.941 | 1.13 | 0.887 |
| NCI-H1563 | – | – | – | – | – | 0.664 | 0.637 | 0.697 | 0.667 | 0.627 | 0.843 | 0.792 | 0.921 | 0.843 | 0.881 | 0.863 | 0.955 | 0.854 |
| NCI-H1793 | – | 0.425 | 0.411 | 0.404 | 0.502 | – | 0.361 | 0.355 | 0.392 | 0.36 | – | – | – | – | 0.749 | 0.696 | 0.707 | 0.539 |
| NCI-H522 | 0.727 | 0.771 | 0.735 | 0.786 | 0.811 | – | – | – | – | – | – | – | – | – | – | – | – | – |
| IA-LM | – | – | – | – | – | 0.368 | 0.439 | 0.4 | 0.568 | 0.524 | 0.6 | 0.737 | 0.887 | 0.7 | 1.06 | 1.1 | 1.01 | 1.06 |
| NCI-H1703 | – | – | – | – | – | 0.246 | 0.24 | 0.207 | 0.198 | 0.173 | 0.588 | 0.693 | 0.254 | 0.172 | 0.275 | 0.337 | 0.273 | 0.257 |
| SW 900 | 1.03 | 0.837 | – | 0.974 | 1.03 | – | – | – | – | – | – | – | – | – | 0.893 | 0.998 | 1.12 | 0.593 |
